How the values were obtained:
[1] = molecular target: NT-3 growth factor receptor (Homo sapiens, UniProt Q16288); assay: Inhibitory Activity of Compounds on TRKA, TRKB and TRKC
[2] = molecular target: BDNF/NT-3 growth factors receptor (Homo sapiens, UniProt Q16620); assay: as above
[3] = molecular target: High affinity nerve growth factor receptor (Homo sapiens, UniProt P04629); assay: as above
[4] = molecular target: Proto-oncogene tyrosine-protein kinase receptor Ret (Homo sapiens, UniProt P07949); assay: Inhibitory Activity of Compounds on RET Kinase
Chain of Proto-oncogene tyrosine-protein kinase receptor Ret (P07949 whole entry): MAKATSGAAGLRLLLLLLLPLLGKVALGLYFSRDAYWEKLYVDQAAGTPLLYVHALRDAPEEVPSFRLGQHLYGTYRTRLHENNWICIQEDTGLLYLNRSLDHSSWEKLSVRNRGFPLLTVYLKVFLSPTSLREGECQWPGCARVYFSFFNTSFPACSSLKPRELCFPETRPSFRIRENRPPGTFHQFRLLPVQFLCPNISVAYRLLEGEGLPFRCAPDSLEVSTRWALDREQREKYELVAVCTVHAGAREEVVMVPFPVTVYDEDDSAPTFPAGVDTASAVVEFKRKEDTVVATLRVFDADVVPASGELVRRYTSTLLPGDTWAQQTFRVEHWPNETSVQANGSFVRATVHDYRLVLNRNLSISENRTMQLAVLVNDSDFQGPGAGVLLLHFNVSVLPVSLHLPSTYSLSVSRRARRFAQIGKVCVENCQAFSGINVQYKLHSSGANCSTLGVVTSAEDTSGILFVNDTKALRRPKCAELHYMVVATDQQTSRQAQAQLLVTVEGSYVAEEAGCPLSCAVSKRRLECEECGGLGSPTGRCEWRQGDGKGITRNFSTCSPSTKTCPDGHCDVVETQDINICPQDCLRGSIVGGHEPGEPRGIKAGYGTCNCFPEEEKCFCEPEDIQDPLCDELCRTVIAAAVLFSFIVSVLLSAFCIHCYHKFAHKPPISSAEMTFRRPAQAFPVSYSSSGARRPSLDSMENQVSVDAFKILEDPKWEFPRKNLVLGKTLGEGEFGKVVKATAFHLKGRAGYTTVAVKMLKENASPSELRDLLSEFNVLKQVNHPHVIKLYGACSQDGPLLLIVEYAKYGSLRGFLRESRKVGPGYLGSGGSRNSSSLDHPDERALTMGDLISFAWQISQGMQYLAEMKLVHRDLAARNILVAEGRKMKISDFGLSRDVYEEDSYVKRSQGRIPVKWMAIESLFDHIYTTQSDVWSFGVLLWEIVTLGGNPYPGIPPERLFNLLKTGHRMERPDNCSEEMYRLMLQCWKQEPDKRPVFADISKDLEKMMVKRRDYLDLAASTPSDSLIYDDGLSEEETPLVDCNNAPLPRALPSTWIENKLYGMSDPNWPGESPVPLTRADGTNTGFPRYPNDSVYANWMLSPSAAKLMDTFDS

Chain of BDNF/NT-3 growth factors receptor (Q16620 whole entry): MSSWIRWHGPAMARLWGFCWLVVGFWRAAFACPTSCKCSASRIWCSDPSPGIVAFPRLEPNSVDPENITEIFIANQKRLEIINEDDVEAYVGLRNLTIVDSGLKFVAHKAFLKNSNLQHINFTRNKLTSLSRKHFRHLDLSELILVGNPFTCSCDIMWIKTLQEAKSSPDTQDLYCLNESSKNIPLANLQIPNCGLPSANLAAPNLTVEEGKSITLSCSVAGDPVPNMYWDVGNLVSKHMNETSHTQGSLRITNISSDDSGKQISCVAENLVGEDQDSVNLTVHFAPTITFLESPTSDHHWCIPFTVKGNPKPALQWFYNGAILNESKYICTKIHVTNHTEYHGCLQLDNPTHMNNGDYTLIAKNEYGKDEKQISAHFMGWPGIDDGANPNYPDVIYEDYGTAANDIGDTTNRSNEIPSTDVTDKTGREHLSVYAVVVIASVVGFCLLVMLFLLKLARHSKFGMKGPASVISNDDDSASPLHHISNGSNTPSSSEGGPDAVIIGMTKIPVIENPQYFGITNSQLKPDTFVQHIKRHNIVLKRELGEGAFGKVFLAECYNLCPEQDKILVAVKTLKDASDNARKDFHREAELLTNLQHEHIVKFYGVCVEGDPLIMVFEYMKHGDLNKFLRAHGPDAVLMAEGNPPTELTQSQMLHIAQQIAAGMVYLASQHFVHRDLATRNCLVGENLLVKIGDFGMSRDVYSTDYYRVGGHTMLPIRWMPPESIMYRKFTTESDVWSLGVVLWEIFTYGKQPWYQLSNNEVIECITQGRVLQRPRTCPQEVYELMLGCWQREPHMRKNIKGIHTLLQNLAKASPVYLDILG
Chain of High affinity nerve growth factor receptor (P04629 whole entry): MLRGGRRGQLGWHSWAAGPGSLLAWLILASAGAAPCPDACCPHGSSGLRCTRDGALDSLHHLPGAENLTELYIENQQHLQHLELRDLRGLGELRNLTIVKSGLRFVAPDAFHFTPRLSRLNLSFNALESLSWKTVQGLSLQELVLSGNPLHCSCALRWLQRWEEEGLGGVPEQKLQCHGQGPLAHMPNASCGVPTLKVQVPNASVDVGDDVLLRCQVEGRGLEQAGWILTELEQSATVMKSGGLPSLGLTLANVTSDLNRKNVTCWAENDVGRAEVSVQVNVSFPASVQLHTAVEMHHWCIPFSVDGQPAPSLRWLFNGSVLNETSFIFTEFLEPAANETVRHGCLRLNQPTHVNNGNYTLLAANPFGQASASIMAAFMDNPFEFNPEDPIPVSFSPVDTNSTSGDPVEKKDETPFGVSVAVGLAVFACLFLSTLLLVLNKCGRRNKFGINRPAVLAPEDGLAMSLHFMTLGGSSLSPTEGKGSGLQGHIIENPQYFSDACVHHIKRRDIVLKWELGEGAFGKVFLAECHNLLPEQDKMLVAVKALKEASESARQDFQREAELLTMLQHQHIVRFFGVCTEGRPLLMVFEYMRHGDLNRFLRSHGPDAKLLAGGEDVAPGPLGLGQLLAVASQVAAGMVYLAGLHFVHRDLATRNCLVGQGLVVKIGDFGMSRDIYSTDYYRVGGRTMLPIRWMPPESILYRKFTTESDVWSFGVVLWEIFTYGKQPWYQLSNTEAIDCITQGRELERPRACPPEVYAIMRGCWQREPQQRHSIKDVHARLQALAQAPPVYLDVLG
Chain of NT-3 growth factor receptor (Q16288 whole entry): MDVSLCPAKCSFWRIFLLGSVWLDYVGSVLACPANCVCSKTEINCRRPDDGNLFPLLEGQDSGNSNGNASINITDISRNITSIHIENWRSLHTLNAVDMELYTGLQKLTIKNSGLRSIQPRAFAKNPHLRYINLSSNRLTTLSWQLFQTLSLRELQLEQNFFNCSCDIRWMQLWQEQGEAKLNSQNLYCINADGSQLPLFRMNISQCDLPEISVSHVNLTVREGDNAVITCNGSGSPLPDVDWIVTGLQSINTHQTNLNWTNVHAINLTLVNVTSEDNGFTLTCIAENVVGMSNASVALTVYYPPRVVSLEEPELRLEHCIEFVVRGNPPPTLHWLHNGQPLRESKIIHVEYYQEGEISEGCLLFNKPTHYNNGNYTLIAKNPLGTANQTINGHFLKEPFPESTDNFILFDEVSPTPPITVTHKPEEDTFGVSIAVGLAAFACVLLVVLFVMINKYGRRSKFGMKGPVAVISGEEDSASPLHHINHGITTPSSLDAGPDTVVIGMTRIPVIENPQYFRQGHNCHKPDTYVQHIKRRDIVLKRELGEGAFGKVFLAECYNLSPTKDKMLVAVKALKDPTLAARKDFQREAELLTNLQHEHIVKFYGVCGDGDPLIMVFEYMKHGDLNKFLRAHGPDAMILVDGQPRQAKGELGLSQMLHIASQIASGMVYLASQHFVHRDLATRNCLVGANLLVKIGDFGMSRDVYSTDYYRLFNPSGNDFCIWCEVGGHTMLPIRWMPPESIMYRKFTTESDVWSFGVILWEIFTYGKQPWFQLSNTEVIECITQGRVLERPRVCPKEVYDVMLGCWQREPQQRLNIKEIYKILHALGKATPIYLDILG

IC50 [1] | IC50 [2] | IC50 [3] | IC50 [4] | Structure (SMILES)
2.2 nM | 6.14 nM | 5.76 nM | – | CCc1cc(O)c(F)cc1-c1ccc2c(-c3nc4c([nH]3)CN(c3nc(N5CCOCC5)cnc3C(=O)c3ncc(N5CCOCC5)nc3N3Cc5nc(-c6n[nH]c7cc(-c8cc(F)c(O)cc8CC)ccc67)[nH]c5C3)C4)n[nH]c2c1 [US20250387388, Compound MDI-201]
1.49 nM | 5.86 nM | 2.82 nM | – | CCc1cc(O)c(F)cc1-c1ccc2c(-c3nc4c([nH]3)CN(C3CCCN3C(=O)N3CCCC3N3Cc5nc(-c6n[nH]c7cc(-c8cc(F)c(O)cc8CC)ccc67)[nH]c5C3)C4)n[nH]c2c1 (stereo not drawn) [US20250387388, Compound MDI-231]
6.32 nM | 30.4 nM | 9.01 nM | – | CCc1cc(O)c(F)cc1-c1ccc2c(-c3nc4c([nH]3)CN(C3CCCCN3C(=O)N3CCCCC3N3Cc5nc(-c6n[nH]c7cc(-c8cc(F)c(O)cc8CC)ccc67)[nH]c5C3)C4)n[nH]c2c1 (stereo not drawn) [US20250387388, Compound MDI-233]
0.65 nM | 1.27 nM | 1.07 nM | – | CCc1cc(O)c(F)cc1-c1ccc2c(-c3nc4c([nH]3)CN(C3CN(C(=O)N5CCOC(N6Cc7nc(-c8n[nH]c9cc(-c%10cc(F)c(O)cc%10CC)ccc89)[nH]c7C6)C5)CCO3)C4)n[nH]c2c1 (stereo not drawn) [US20250387388, Compound MDI-234]
0.27 nM | 1.39 nM | 0.57 nM | 0.1 nM | CCc1cc(O)c(F)cc1-c1ccc2c(-c3nc4c([nH]3)CN(C3CN(C)CCN3C(=O)N3CCN(C)CC3N3Cc5nc(-c6n[nH]c7cc(-c8cc(F)c(O)cc8CC)ccc67)[nH]c5C3)C4)n[nH]c2c1 (stereo not drawn) [US20250387388, Compound MDI-235]
0.2 nM | 1.06 nM | 0.23 nM | – | CCc1cc(O)c(F)cc1-c1ccc2c(-c3nc4c([nH]3)CN(C3CN(CC)CCN3C(=O)N3CCN(CC)CC3N3Cc5nc(-c6n[nH]c7cc(-c8cc(F)c(O)cc8CC)ccc67)[nH]c5C3)C4)n[nH]c2c1 (stereo not drawn) [US20250387388, Compound MDI-236]
0.57 nM | 3.37 nM | 0.83 nM | 0.99 nM | CCc1cc(O)c(F)cc1-c1ccc2c(-c3nc4c([nH]3)CN(C3CC(O)CCN3C(=O)N3CCC(O)CC3N3Cc5nc(-c6n[nH]c7cc(-c8cc(F)c(O)cc8CC)ccc67)[nH]c5C3)C4)n[nH]c2c1 (stereo not drawn) [US20250387388, Compound MDI-245]

From BindingDB's records for patent US20250387388 (Medinno Pharmaceutical Technology (Zhuhai) Co., 2025)
